Results reported in patent US11865146B2 (priority 2015, dated 2024).

Test system: C. difficile strain 630
Conditions: BDM without glucose
Experimental: All strains for this study were maintained inside an anaerobic growth chamber with a gas mixture of 75% N2/20% CO2/5% H2 (Coy Lab Products, Grass Lake, MI). Liquid and solid growth media was allowed to reduce in the anaerobic chamber for a minimum of 24 hours prior to use. For transfer out of the chamber, liquid stocks were sealed in sterile, gas-tight crimp cap glass vials. C. difficile strain 630 was maintained at 37° C. on Clostridium difficile Moxalactam Norfloxacin (CDMN) blood agar plates (Aspinall et al. 1992 J Clin Pathol. 45:812-814), in Reinforced Clostridial Medium (RCM) broth (Difco DF1808173), or in Basal Defined Medium (BDM) (Karasawa et al. 1995 Microbiology. 141:371-375) broth. C. difficile amino acid (AA) utilization was assessed using modified BDM containing ½ or ¼ of the standard AA content. Proline utilization was assessed in modified BDM lacking glucose and proline. Bacterial growth rates were assessed using a BioTek Eon microplate spectrophotometer (BioTek, Winooski, VT).

O=C(O)[C@@H]1CCCN1 [proline]
C. difficile growth in the absence of proline: unable to grow
